Experimental data from patent US9586968B2, “Bicycloamine-substituted-N-benzenesulfonamide compounds with selective activity in voltage-gated sodium channels” (Merck Sharp & Dohme Corp., priority 2013, dated 2017).
pIC50: −log10 of the molar value.

Experiments:
human Nav1.5 = target: T1, human Nav1.5 (Homo sapiens, UniProt Q14524); assay: PatchXpress automated patch-clamp, inactivated state block of Nav1.5 (selectivity); assay type: cell-based; settings: determined by PatchXpress measurement, HEK 293 cells
T1 construct: expressed in transfected cells
T1 sequence (Q14524 whole entry): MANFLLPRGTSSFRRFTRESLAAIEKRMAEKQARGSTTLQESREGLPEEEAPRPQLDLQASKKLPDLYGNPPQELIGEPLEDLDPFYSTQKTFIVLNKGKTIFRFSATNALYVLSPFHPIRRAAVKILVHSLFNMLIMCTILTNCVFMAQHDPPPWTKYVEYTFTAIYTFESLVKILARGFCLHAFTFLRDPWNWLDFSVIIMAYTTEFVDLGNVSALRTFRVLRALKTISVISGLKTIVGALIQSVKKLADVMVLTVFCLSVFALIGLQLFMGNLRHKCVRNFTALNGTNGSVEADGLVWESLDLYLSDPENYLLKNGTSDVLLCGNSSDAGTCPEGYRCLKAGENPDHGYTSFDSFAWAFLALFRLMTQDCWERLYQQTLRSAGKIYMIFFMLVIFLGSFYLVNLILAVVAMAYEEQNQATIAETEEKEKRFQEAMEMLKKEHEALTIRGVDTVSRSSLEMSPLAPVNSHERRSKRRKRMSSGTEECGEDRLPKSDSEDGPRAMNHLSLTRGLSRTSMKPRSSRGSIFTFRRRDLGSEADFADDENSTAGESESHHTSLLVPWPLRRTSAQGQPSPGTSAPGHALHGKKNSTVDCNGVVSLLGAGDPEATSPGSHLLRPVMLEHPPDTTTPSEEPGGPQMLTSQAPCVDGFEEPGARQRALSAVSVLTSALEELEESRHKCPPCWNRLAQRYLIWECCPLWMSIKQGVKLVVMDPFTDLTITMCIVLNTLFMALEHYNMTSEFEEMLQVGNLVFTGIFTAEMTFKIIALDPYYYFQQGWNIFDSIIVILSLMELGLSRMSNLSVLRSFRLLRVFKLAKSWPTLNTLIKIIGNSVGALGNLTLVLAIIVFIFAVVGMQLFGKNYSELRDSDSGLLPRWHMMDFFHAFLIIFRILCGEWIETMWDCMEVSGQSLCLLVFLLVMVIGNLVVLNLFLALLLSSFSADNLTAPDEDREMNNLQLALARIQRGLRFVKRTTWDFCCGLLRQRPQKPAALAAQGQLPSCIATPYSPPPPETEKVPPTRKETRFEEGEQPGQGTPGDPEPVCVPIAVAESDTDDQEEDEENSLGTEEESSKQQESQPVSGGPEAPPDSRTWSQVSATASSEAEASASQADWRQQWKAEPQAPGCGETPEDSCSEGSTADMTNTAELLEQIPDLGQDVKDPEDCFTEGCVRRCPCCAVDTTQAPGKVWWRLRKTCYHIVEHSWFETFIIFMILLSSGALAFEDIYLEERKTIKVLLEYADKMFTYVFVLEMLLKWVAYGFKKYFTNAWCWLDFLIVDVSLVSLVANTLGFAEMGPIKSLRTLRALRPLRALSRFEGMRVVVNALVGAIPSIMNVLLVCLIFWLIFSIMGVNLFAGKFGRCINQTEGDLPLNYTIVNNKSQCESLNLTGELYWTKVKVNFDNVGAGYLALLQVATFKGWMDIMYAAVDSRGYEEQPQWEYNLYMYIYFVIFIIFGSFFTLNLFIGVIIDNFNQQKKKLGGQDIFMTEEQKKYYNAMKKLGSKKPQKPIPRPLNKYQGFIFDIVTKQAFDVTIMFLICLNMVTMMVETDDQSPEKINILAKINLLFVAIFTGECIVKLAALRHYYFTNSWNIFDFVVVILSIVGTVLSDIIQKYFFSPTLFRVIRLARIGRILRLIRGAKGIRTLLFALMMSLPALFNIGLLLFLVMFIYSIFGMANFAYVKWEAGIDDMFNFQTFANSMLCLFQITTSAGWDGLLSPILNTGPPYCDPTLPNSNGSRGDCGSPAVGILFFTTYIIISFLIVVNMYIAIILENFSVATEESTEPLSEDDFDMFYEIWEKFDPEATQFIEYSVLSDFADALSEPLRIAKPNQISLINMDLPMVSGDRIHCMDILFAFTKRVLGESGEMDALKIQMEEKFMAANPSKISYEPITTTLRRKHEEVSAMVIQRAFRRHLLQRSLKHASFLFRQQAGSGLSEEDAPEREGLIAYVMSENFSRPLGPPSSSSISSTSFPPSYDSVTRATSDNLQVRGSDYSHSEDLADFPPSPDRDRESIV
In short: (§1)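 HEK 293 cells stably expressing the channel, recorded at 22° C on PatchXpress with a double-pulse protocol: hold 20 mV negative to V0.5 inact, 8000 ms prepulse 7 mV positive to V0.5 inact, 2 ms step to −120 mV, 20 ms test pulse to −20 mV. Rundown-corrected inhibition fitted to Hill equation for IC50.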

human Nav1.7 = target: T2, human Nav1.7 (Homo sapiens, UniProt Q15858); assay: PatchXpress automated patch-clamp, inactivated state block of Nav1.7; assay type: cell-based; settings: channels stably expressed in HEK 293 cells, 22° C., read-out: potency for the Nav 1.7 sodium ion channel (as measured by PatchXpress)
T2 construct: expressed in transfected cells
T2 sequence (Q15858 whole entry): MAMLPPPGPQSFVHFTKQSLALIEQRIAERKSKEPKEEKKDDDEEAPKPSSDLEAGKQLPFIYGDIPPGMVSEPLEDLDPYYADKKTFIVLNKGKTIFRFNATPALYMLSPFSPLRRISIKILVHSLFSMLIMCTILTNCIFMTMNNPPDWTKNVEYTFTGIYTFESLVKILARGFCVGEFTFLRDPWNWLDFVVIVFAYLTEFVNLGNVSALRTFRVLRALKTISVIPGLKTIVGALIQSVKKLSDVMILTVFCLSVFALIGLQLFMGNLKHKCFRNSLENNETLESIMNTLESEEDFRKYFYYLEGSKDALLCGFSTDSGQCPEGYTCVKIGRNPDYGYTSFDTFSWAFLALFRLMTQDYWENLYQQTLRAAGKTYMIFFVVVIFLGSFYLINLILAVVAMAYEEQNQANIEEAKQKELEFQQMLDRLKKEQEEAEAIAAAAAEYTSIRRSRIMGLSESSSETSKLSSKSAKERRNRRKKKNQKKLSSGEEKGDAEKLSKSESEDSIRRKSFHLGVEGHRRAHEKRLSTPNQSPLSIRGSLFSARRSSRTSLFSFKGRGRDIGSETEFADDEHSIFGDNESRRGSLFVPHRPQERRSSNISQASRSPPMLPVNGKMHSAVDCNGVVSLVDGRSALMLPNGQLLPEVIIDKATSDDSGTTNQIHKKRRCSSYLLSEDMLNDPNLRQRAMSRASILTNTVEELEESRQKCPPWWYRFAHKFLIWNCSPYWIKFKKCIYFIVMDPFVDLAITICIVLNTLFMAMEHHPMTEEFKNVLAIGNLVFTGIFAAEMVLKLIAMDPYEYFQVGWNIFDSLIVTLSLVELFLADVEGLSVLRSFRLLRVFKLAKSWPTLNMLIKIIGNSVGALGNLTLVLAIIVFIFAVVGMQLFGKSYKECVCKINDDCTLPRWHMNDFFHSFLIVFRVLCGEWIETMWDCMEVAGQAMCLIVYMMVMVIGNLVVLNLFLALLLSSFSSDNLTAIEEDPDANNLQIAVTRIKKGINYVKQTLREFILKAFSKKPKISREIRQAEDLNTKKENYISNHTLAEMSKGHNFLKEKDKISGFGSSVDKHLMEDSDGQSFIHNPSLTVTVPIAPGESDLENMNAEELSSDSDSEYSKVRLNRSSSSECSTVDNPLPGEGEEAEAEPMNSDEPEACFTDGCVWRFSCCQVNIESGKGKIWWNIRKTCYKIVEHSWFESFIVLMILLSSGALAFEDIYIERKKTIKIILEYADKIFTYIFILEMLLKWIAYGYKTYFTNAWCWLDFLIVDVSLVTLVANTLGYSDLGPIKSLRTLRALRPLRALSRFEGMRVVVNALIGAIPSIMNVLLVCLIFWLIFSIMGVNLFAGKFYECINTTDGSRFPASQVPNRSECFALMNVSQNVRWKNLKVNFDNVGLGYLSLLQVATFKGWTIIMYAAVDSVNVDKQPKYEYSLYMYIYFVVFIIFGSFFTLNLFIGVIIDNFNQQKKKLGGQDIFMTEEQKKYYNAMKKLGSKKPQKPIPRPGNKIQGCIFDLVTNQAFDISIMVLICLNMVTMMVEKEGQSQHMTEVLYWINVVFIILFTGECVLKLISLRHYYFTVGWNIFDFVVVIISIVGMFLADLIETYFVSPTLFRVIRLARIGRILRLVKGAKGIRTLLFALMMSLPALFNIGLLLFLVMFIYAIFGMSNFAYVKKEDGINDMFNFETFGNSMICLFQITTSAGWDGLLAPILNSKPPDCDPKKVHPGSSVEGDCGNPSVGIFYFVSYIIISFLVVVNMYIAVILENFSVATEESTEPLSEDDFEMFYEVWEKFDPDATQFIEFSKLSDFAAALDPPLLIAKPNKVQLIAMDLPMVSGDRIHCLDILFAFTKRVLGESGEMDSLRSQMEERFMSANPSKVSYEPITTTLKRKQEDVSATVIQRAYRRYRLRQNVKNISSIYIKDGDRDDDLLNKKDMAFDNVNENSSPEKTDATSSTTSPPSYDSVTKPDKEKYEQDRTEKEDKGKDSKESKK
In short: as §1

With `CC1CN2CCCC2(CNc2cc(F)c(S(=O)(=O)Nc3ncc(Cl)s3)cc2Cl)C1` [Ex4-10, 5-chloro-N-(5-chlorothiazol-2-yl)-2-fluoro-4-((((2S,7aR and 2R,7aS)-2-methylhexahydro-1H-pyrrolizin-7a-yl)methyl)-amino)benzene-sulfonamide] the “ratio of Nav1.7 potency:Nav 1.5 potency” value (human Nav1.5) was 2681 and the pIC50 (human Nav1.7) was 8.00.

In the case of `CC1CN2CCCC2(CNc2ccc(S(=O)(=O)Nc3nccs3)cc2Cl)C1` [Ex4-11, 3-chloro-4-((((2S/7aR and 2R,7aS)-2-methylhexahydro-1H-pyrrolizin-7a-yl)methyl)amino)-N-(thiazol-2-yl)benzenesulfonamide], the “ratio of Nav1.7 potency:Nav 1.5 potency” value (human Nav1.5) was 7180 and the pIC50 (human Nav1.7) was 8.30.

With `O=S(=O)(Nc1nccs1)c1cc(Cl)c(NCC23CCCN2CCC3)cc1Br` [Ex12-5, 2-bromo-5-chloro-4-(((hexahydro-1H-pyrrolizin-7a-yl)methyl)amino)-N-(thiazol-2-yl)benzenesulfonamide] the “ratio of Nav1.7 potency:Nav 1.5 potency” value (human Nav1.5) was 288 and the pIC50 (human Nav1.7) was 7.39.

With `N#Cc1cc(NCC23CCCN2CCC3)c(Cl)cc1S(=O)(=O)Nc1nccs1` [Ex12-6, 5-chloro-2-cyano-4-(((hexahydro-1H-pyrrolizin-7a-yl)methyl)amino)-N-(thiazol-2-yl)benzenesulfonamide] the “ratio of Nav1.7 potency:Nav 1.5 potency” value (human Nav1.5) was 180 and the pIC50 (human Nav1.7) was 7.02.

With `Cc1cc(NCC23CCCN2CCC3)c(Cl)cc1S(=O)(=O)Nc1nccs1` [Ex12-7, 5-chloro-4-(((hexahydro-1H-pyrrolizin-7a-yl)methyl)amino)-2-methyl-N-(thiazol-2-yl)benzenesulfonamide] the “ratio of Nav1.7 potency:Nav 1.5 potency” value (human Nav1.5) was 163 and the pIC50 (human Nav1.7) was 7.59.

`CCc1cc(S(=O)(=O)Nc2nccs2)c(F)cc1NCC12CCCN1CCC2` [Ex18-7, 5-ethyl-2-fluoro-4-(((hexahydro-1H-pyrrolizin-7a-yl)-methyl)amino)-N-(thiazol-2-yl)-benzenesulfonamide] was tested, and the “ratio of Nav1.7 potency:Nav 1.5 potency” value (human Nav1.5) was 672 and the pIC50 (human Nav1.7) was 7.72.

`CCc1cc(S(=O)(=O)Nc2ncc(F)s2)c(F)cc1NCC12CCCN1CCC2` [Ex18-8, 5-ethyl-2-fluoro-N-(5-fluorothiazol-2-yl)-4-(((hexahydro-1H-pyrrolizin-7a-yl)-methyl)amino)-benzenesulfonamide] was tested, and the “ratio of Nav1.7 potency:Nav 1.5 potency” value (human Nav1.5) was 2595 and the pIC50 (human Nav1.7) was 8.30.
